Results from ChEMBL document CHEMBL4038307, “Influence of a Basic Side Chain on the Properties of Hypoxia-Selective Nitro Analogues of the Duocarmycins: Demonstration of Substantial Anticancer Activity in Combination with Irradiation or Chemotherapy” (J Med Chem, 2017).
The source made the active and inactive calls. The calls are words filed in the database; no cut-off is given here.

Key:
[1] = system: SiHa; assay: Antitumor activity against human SiHa cells xenografted in CD-1 Foxn1 nude mouse assessed as log reduction in colony forming cells under hypoxic condition at 42 umol/kg, iv treated 5 mins after gamma irradiation measured after 18 hrs by excision assay; assay type: functional
[2] = system: NCI-H460; assay: Antitumor activity against human H460 cells xenografted in CD-1 Foxn1 nude mouse assessed as reduction in colony forming cells under hypoxic condition at 75 umol/kg, iv treated 5 mins after gamma irradiation measured after 18 hrs by excision assay; assay type: functional, organism-based
[3] = system: NCI-H1299; assay: Antitumor activity against human H1299 cells xenografted in CD-1 Foxn1 nude mouse assessed as reduction in colony forming cells at 75 umol/kg, iv treated 5 mins after gamma irradiation measured after 18 hrs by excision assay; assay type: functional, organism-based
[4] = system: HCT-116; assay: Antitumor activity against human HCT116 cells xenografted in CD-1 Foxn1 nude mouse assessed as reduction in colony forming cells at 56 umol/kg, iv treated 5 mins after gamma irradiation measured after 18 hrs by excision assay; assay type: functional, organism-based
[5] = system: CWR22R; assay: Antitumor activity against human 22Rv1 cells xenografted in CD-1 Foxn1 nude mouse assessed as reduction in colony forming cells under hypoxic condition at 30 umol/kg, iv treated 5 mins after gamma irradiation measured after 18 hrs by excision assay; assay type: functional, organism-based
[6] = system: A2780; assay: Antitumor activity against human A2780 cells xenografted in CD-1 Foxn1 nude mouse assessed as median tumor growth delay time at 15 umol/kg, iv after 100 to 120 days in presence of gemcitabine; assay type: functional
[7] = system: A2780; assay: Antitumor activity against human A2780 cells xenografted in CD-1 Foxn1 nude mouse assessed as tumor regrowth at 15 umol/kg, iv after 100 to 120 days; assay type: functional, organism-based
[8] = system: Mus musculus; assay: Toxicity in CD-1 Foxn1 nude mouse xenografted with human A2780 cells assessed as change in body weight at 15 umol/kg, iv after 100 to 120 days in presence of gemcitabine; assay type: organism-based; settings: in vivo
[9] = system: Mus musculus; assay: Toxicity in CD-1 Foxn1 nude mouse xenografted with human A2780 cells at 15 umol/kg, iv after 100 to 120 days in presence of gemcitabine; assay type: organism-based; settings: in vivo
[10] = system: CWR22R; assay: Antitumor activity against human 22Rv1 cells xenografted in CD-1 Foxn1 nude mouse assessed as tumor regrowth at 14 umol/kg, iv after 100 to 120 days; assay type: functional, organism-based
[11] = system: CWR22R; assay: Antitumor activity against human 22Rv1 cells xenografted in CD-1 Foxn1 nude mouse assessed as tumor regression at 14 umol/kg, iv after 100 to 120 days in presence of docetaxel; assay type: functional, organism-based
[12] = system: CWR22R; assay: Antitumor activity against human 22Rv1 cells xenografted in CD-1 Foxn1 nude mouse assessed as median tumor growth delay time at 15 umol/kg, iv after 100 to 120 days in presence of docetaxel; assay type: functional
[13] = system: Mus musculus; assay: Toxicity in CD-1 Foxn1 nude mouse xenografted with human 22Rv1 cells assessed as change in body weight at 14 umol/kg, ip; settings: in vivo
[14] = system: Mus musculus; assay: Toxicity in CD-1 Foxn1 nude mouse xenografted with human 22Rv1 cells at 14 umol/kg, ip; settings: in vivo
[15] = system: A2780; assay: Antitumor activity against human A2780 cells xenografted in CD-1 Foxn1 nude mouse assessed as tumor regression at 42 to 56 umol/kg, iv after 100 days; assay type: functional, organism-based
[16] = system: SiHa; assay: Antitumor activity against human SiHa cells xenografted in CD-1 Foxn1 nude mouse assessed as tumor regression at 42 to 56 umol/kg, iv after more than 100 days in presence of gemcitabine; assay type: functional, organism-based
[17] = system: Mus musculus; assay: Toxicity in CD-1 Foxn1 nude mouse xenografted with human SiHa cells assessed as body weight change at 42 to 56 umol/kg, iv after 100 to 120 days in presence of gemcitabine; assay type: organism-based; settings: in vivo
[18] = system: SiHa; assay: Antitumor activity against human SiHa cells xenografted in CD-1 Foxn1 nude mouse assessed as tumor regression at 42 to 56 umol/kg, iv after more than 100 days; assay type: functional, organism-based
[19] = system: A2780; assay: Antitumor activity against human A2780 cells xenografted in CD-1 Foxn1 nude mouse assessed as tumor regression at 42 to 56 umol/kg, iv after 8 to 23 days in presence of gemcitabine; assay type: functional, organism-based
[20] = system: A2780; assay: Antitumor activity against human A2780 cells xenografted in CD-1 Foxn1 nude mouse assessed as tumor regression at 42 to 56 umol/kg, iv after 100 days in presence of gemcitabine; assay type: functional, organism-based
[21] = system: Mus musculus; assay: Toxicity in CD-1 Foxn1 nude mouse xenografted with human SiHa cells assessed as sporadic acute toxicity at 42 to 56 umol/kg, iv; settings: in vivo
[22] = system: SiHa; assay: Antitumor activity against human SiHa cells xenografted in CD-1 Foxn1 nude mouse assessed as tumor regrowth at 237 umol/kg, ip four times for every three days after 100 to 120 days; assay type: functional, organism-based
[23] = system: Mus musculus; assay: Toxicity in CD-1 Foxn1 nude mouse xenografted with human SiHa cells assessed as lose in body weight at 133 umol/kg, ip four times for every three days after 100 to 120 days; assay type: organism-based; settings: in vivo
[24] = system: A2780; assay: Antitumor activity against human A2780 cells xenografted in CD-1 Foxn1 nude mouse assessed as delay in tumor growth at 100 umol/kg, ip four times for every three days after 100 to 120 days; assay type: functional, organism-based
[25] = system: A2780; assay: Antitumor activity against human A2780 cells xenografted in CD-1 Foxn1 nude mouse assessed as tumor regression at 133 umol/kg, ip four times for every three days after 100 to 120 days; assay type: functional, organism-based
[26] = system: CWR22R; assay: Antitumor activity against human 22Rv1 cells xenografted in CD-1 Foxn1 nude mouse assessed as tumor stasis at 32 umol/kg, ip once in every two weeks after 100 to 120 days; assay type: functional, organism-based
[27] = system: CWR22R; assay: Antitumor activity against human 22Rv1 cells xenografted in CD-1 Foxn1 nude mouse assessed as median tumor growth delay time at 32 umol/kg, ip once in every two weeks after 100 to 120 days; assay type: functional
[28] = system: Mus musculus; assay: Toxicity in CD-1 Foxn1 nude mouse xenografted with human 22Rv1 cells assessed as change in body weight at 32 umol/kg, ip once in every two weeks after 100 to 120 days; assay type: organism-based; settings: in vivo

Nc1cc2c(c3ccc(S(=O)(=O)NCCOP(=O)(O)O)cc13)C(CCl)CN2C(=O)c1cc2cc(OCCN3CCOCC3)ccc2[nH]1 (stereo not drawn)
Activity [1]: >1 | Activity [2]: Active | Activity [3]: Active | Activity [4]: Active | Activity [5]: Active | Time [6]: 14 days | Activity [7]: inactive | Activity [8]: Non-Toxic | Activity [9]: Non-Toxic | Activity [10]: inactive | Activity [11]: Active | Time [12]: 17 days | Activity [13]: Non-Toxic | Activity [14]: Non-Toxic

CN(C)CCOc1ccc2[nH]c(C(=O)N3CC(CCl)c4c3cc([N+](=O)[O-])c3cc(S(=O)(=O)NCCOP(=O)(O)O)ccc43)cc2c1 (stereo not drawn)
Activity [15]: inactive | Activity [1]: Active | Activity [2]: Active | Activity [3]: Active | Activity [4]: Active | Activity [5]: Active | Activity [16]: Active | Activity [17]: Non-Toxic | Activity [18]: Active | Activity [19]: Active | Activity [20]: Active | Activity [21]: Toxic

Nc1ccn([C@@H]2O[C@H](CO)[C@@H](O)C2(F)F)c(=O)n1 [GEMCITABINE]
Activity [22]: Active | Activity [23]: 5% | Activity [24]: Active | Activity [25]: Active

CC(=O)O[C@@]12CO[C@@H]1C[C@H](O)[C@@]1(C)C(=O)[C@H](O)C3=C(C)[C@@H](OC(=O)[C@H](O)[C@@H](NC(=O)OC(C)(C)C)c4ccccc4)C[C@@](O)([C@@H](OC(=O)c4ccccc4)[C@H]21)C3(C)C [DOCETAXEL ANHYDROUS]
Activity [26]: inactive | Time [27]: 13 days | Activity [28]: Toxic
